The procedure of data set [1]: The solubility of the organic carboxylic acid strontium salts, were measured in water. The solubility of these salts was also measured as a function of temperature. This was performed by incubating the saturated solutions of the salts in temperature controlled incubators.
The buffered solutions were immersed into a bath of water temperature controlled at either room temperature (22-24° C.), at 30° C. or at 40° C. […] In order to eliminate any reminiscent strontium chloride influence on the determination of solubility, all the precipitate was collected at the bottom of the test tubes and the solutions above the precipitate were carefully removed and substituted by fresh solutions. […] From these solutions, the dissolved proportions of the strontium salt were collected in volumes of 1 mL at the specified temperature. The solutions were diluted to 50 mL before analysis by Flame Atomic Absorption Spectrometry (F-AAS).
Two methods were used for quantification of strontium in solutions: Flame Atomic Absorption Spectrometry (F-AAS), and the more sensitive inductively-coupled-plasmamass spectrometry (ICP-MS).
The solubilities were investigated as described above, and strontium content in the saturated solutions determined as described here below.
Some of the very soluble strontium salts were further diluted before analysis by F-AAS. The measurements were performed by using a Perkin-Elmer 2100 equipped with a hydrogen lamp for correction of the background signal. Strontium was measured at a slit with of 0.2 nm, the wavelength was 460.8 nm operated at an energy of 58 and a current of 8 mA.
This analysis was performed using a Perkin Elmer Elan 5000 system equipped with a cross-flow nebulizer. The power was set at 1000 W and the Argon-gas flow was 12 L/min and 0.8 L/min of the torch and plasma gas, respectively.

The source holds these as a separate data set.
The conditions of data set [2]: values quoted in scientific literature or reference material; cited from earlier work.

The structures appear in SMILES notation. Like-named read-outs stand apart in the source and are kept apart here.

As for `CC(=O)C(=O)O` [Pyruvate, strontium pyruvate], the “SOLUBILITY AT ROOM TEMPERATURE (22-24° C.), In water” value in data set [1] amounted to 2204 Mg/L. In addition, the “SOLUBILITY AT ROOM TEMPERATURE (22-24° C.), pH 7.5” value in data set [1] (pH 7.5) was found to be 1946 Mg/L.
Take `O=C([O-])/C=C\C(=O)[O-].[Sr+2]` [Maleate, strontium maleate]: in data set [1], the “SOLUBILITY AT 40° C., In water” value was found to be 2527 mg/L and the “SOLUBILITY AT ROOM TEMPERATURE (22-24° C.), In water” value turned out to be 3002 Mg/L. In data set [1] (pH 7.5), the “SOLUBILITY AT 40° C., pH 7.5” value is given as 1457 mg/L; the “SOLUBILITY AT ROOM TEMPERATURE (22-24° C.), pH 7.5” value came to 1680 Mg/L; the “solubility in pH 7.5 buffered solution compared with pure water” value was “decreased solubility in the buffered solution”.
`N#Cc1c(N(CC(=O)[O-])CC(=O)[O-])sc(C(=O)[O-])c1CC(=O)[O-].[Sr+2].[Sr+2]` [Ranelate, distrontium salt of 2-[N,N-di(carboxymethyl)amino]-3-cyano-4-carboxymethylthiophene-5-carboxylic acid, reference compound]: in data set [1], the “SOLUBILITY AT 40° C., In water” value came to 1450 mg/L and the “SOLUBILITY AT ROOM TEMPERATURE (22-24° C.), In water” value stood at 760 Mg/L. Moreover, in data set [1] (pH 7.5), the “SOLUBILITY AT 40° C., pH 7.5” value turned out to be 1970 mg/L and the “SOLUBILITY AT ROOM TEMPERATURE (22-24° C.), pH 7.5” value was found to be 890 Mg/L. Under “rat, in vivo, po”, the “time to maximum serum concentration” value is reported as “approximately 2 hours”.
Consider `O=C([O-])/C=C/C(=O)[O-].[Sr+2]` [Fumerate, strontium fumarate], for which, in data set [1], the “SOLUBILITY AT 40° C., In water” value was 444 mg/L; the “SOLUBILITY AT ROOM TEMPERATURE (22-24° C.), In water” value is given as 571 Mg/L; the “solubility compared to the other organic strontium salts” value is “poor solubility”. In data set [1] (pH 7.5), the “SOLUBILITY AT 40° C., pH 7.5” value was determined as 977 mg/L and the “SOLUBILITY AT ROOM TEMPERATURE (22-24° C.), pH 7.5” value was found to be 1215 Mg/L.
With `[Cl-].[Cl-].[Sr+2]` [SrCl2, strontium chloride], the “Solubility, Measured” value in data set [1] (commercially available salts, in water at room temperature (22-24°)) was 240 mg/mL. Under “serum strontium, single oral gavage, rats”, the “time to maximum serum concentration” value is “approximately 2 hours”. In addition, the “Solubility, Expected Value 18° C.” value in data set [2] is 538 mg/mL.

These data come from patent US20130071496A1, “CONTROLLED RELEASE COMPOSITION CONTAINING A STRONTIUM SALT” (Osteologix A/S, priority 2003, published 2013).
